IC50 data for 6 compounds are collected here from ChEMBL document CHEMBL1146674, “Effective irreversible alkylating reagents based on the structure of clavulones” (Bioorg Med Chem Lett, 2004).

The first test deals with HeLa. Briefly: Cytotoxicity in HeLa S3 cells (human uterocervical carcinoma) was determined. Particulars: Homo sapiens, HeLa; read-out: IC50. The format is functional, cell-based.
Turning to `CC(=O)OC1(CC#Cc2ccccc2)C=CC(=O)C1=Cc1ccccc1` (stereo unspecified), the IC50 came to 0.024 µM.

For the compound `O=C1CC(SCCO)C(O)(CC#Cc2ccccc2)/C1=C/c1ccccc1` (stereo unspecified), the IC50 is 0.021 µM.

`O=C1C=CC(O)(CC#Cc2ccccc2)/C1=C/c1ccccc1` (stereo unspecified): the IC50 came to 0.015 µM.

As for `O=C1C=CC(CC#Cc2ccccc2)(OC2CCCCO2)/C1=C/c1ccccc1` (stereo unspecified), the IC50 stood at 1.1 µM.

The test is the same for the next values; noted with them: hela.
For `O=C1CC(SCCO)/C(=C\C#Cc2ccccc2)C1C(SCCO)c1ccccc1` (stereo unspecified), the IC50 was over 1000 µM.

Take `O=C1CC(SCCO)/C(=C/C#Cc2ccccc2)C1C(SCCO)c1ccccc1` (stereo unspecified): the IC50 was over 1000 µM.

The IC50 is the point on the concentration scale where inhibition reaches its midpoint.
